This experiment concerns human prostate cancer cells 22Rvl. Kind of experiment: Cell viability inhibition assay (CTG) on 22Rvl cells. It is filed as cell-based. To be noted: 120 h, no DHT, 5 days, read-out: Inhibitory activity against human prostate cancer cells 22Rvl IC50. From the text:
Human prostate cancer cells LNCaP and human prostate cancer cells 22Rvl are present in patients with prostate cancer. An androgen, DHT, is able to promote the growth of human prostate cancer cells LNCaP. Using the cell model described above was intended to study the inhibitory effects of the compounds of the present disclosure on the growth of human prostate cancer cells (human prostate cancer cells LNCaP and human prostate cancer cells 22Rvl) in the presence or absence of DHT. […]
The medium in the culture dish was discarded, and 5 mL of trypsin was added for digestion for about 3 mins. […] 1 mL of the cells was taken and counted, and the cell viability was detected. […]
After the cells were attached to the well, for the human prostate cancer cells LNCaP group, test compounds (0.1 μM, 0.3 μM, 1 μM, 3 μM, 10 μM, and 30 μM) and DHT (1 nM, inducing the expression of AR) were added to the 96-well plate, and the plate was incubated for another 5 days; for the human prostate cancer cells 22Rvl group, test compounds (0.1 μM, 0.3 μM, 1 μM, 3 μM, 10 μM, and 30 μM) were added to the 96-well plate, and the plate was incubated for another 5 days. […] The cell viability was detected by using a CTG method. […] The fluorescence value in each well was then detected. […] For data analysis, an assay background value was subtracted from all data points, which was determined in wells containing the medium but no cells. […]

The structures appear in SMILES notation.

With `COc1ccc(/C=C/C(=O)C2(C(=O)/C=C/c3ccc(OC)c(OC)c3)CCC(F)(F)CC2)cc1OC` [Compound 8], the IC50 (in general, the point on the concentration scale where inhibition reaches its midpoint) was 350 nM.
